Measurements as given in US20090047684A1, “Gene and protein expression profiles associated with the therapeutic efficacy of irinotecan” (Nuclea Biomarkers, LLC, priority 2006, published 2009).
Structures can show the parent of a compound that is named as a salt.

Test system: tumor cells derived from patients who were responsive to treatment with irinotecan
Assay: xenograft of patient-derived tumor cells in SCID mice treated with irinotecan
Type: in vivo
Conditions: SCID mice with established xenograft tumors, injected with 200 mg/kg of irinotecan
Procedure: Positive expression also was evaluated using a xenograft array. SCID mice were injected with tumor cells derived from patients who were responsive to treatment with irinotecan, and the tumors were allowed to grow in the mice. Once the tumors were established, the mice were injected with 200 mg/kg of irinotecan, and the mice were monitored to observe responsiveness to the drug. […] Prior to treatment with the drug, samples of the tumors were extracted from the mice and used to make a TMA.

CCc1c2c(nc3ccc(OC(=O)N4CCC(N5CCCCC5)CC4)cc13)-c1cc3c(c(=O)n1C2)COC(=O)[C@]3(O)CC [irinotecan, Irinotecan hydrochloride]
responsiveness to the drug: effect on tumors formed in the SCID mice: reduced or eliminated
